Assay type in all cases: cell-based
Assay [1] concerns SNU-16 (FGFR2-amplification) cells. The assay is described as follows: cell proliferation assay (CellTiterGlo), SNU-16 cells. The following applies: Homo sapiens, 72 hours. The source says: (§1) In some embodiments, the biological assay assess the ability of the compounds to inhibit cell proliferation.
(§2) In some embodiments, cells (e.g., SNU-16 (FGFR2-amplification) cells) may be suspended and dispensed in plates. In some embodiments, cells (e.g., UM-UC-14 (FGFR3-S249C) cells) may be suspended and dispensed in plates. In some embodiments, cells (e.g., DMS-114 (FGFR1 overexpression) cells) may by suspended and dispensed in plates. In some embodiments, cells (e.g., RT-112 (FGFR3-Tacc3 fusion) cells) may be suspended and dispensed in plates. In some embodiments, to determine the effect of the compounds of the present disclosure on cell proliferation, cells (e.g., SNU-16, UM-UC-14, DMS-114 and […] cells) may be incubated in the presence of vehicle control (e.g., DMSO) or a compound of the present disclosure at varying concentrations and the inhibition of cell growth may be determined by luminescent quantification (e.g., of intracellular ATP content using CellTiterGlo), according to the manufacturers protocol. In some embodiments, to determine the IC50 values, the vehicle-treated cells were normalized as viable cells and the growth was analyzed using a software (e.g., the CDD Vault software (Collaborative Drug Discovery, Burlingame, CA)).

Assay [2] deals with RT-112 (FGFR3-Tacc3 fusion) cells. The assay is described as follows: cell proliferation assay (CellTiterGlo), RT-112 cells. The conditions noted are these: Homo sapiens, RT-112, RT112 cells, 72 hours.
Text: as §1, §2
For orientation: Cellular ATP, detected with luciferase, serves as a proxy for viable cell number.

For assay [3], the system named is DMS-114 (FGFR1 overexpression) cells. The assay is described as follows: cell proliferation assay (CellTiterGlo), DMS-114 cells. The following applies: Homo sapiens, DMS-114, 72 h.
Text: as §1, §2

Assay [4] has as its system UM-UC-14 (FGFR3-S249C) cells. The assay is described as follows: cell proliferation assay (CellTiterGlo), UM-UC-14 cells. The conditions noted are these: UMUC14, 72 h.
Text: as §1, §2

Take `Cc1nc2ccc(Oc3ccc4ncc(-c5cnn(CC(C)(C)O)c5)nc4c3Cl)cc2[nH]1` [Compound 280]: the IC50 in assay [1] is 20 to 100 nM; in assay [2] it was 20 to 100 nM; in assay [3] it was at least 400 nM; in assay [4], 20 to 100 nM.

For `Cc1nc2ccc(Oc3ccc4ncc(-c5cnn(C(C)(C)C(=O)O)c5)nc4c3Cl)c(F)c2[nH]1` [Compound 115], the IC50 in assay [1], in assay [2], in assay [3] and in assay [4] was at least 400 nM throughout.

As for `Cc1nc2ccc(Oc3ccc4ncc(-c5cnn(C6CN(c7ccccn7)C6)c5)nc4c3Cl)cc2[nH]1` [Compound 191], the IC50 is 100 to 400 nM in assay [1], 100 to 400 nM in assay [2], at least 400 nM in assay [3] and 100 to 400 nM in assay [4].

Turning to `Cc1nc2ccc(Oc3ccc4ncc(-c5cnn(C6CCN(CC(F)(F)F)C7(CC7)C6)c5)nc4c3Cl)c(F)c2[nH]1` (stereo not drawn) [Compound 121], the IC50 in assay [1] is 20 to 100 nM; in assay [2] it was 20 to 100 nM; in assay [3], at least 400 nM; in assay [4] it was 20 to 100 nM.

In the case of `CC(=O)N1CCCC(n2cc(-c3cnc4ccc(Oc5ccc6nc(C)[nH]c6c5)c(Cl)c4n3)cn2)C1` (stereo not drawn) [Compound 373], the half-maximal inhibitory concentration (IC50) in assay [1] is 20 to 100 nM; in assay [2], 20 to 100 nM; in assay [3], at least 400 nM; in assay [4] it was 20 to 100 nM.

For `CC(=O)NC1(Cn2cc(-c3cnc4ccc(Oc5ccc6nc(C)[nH]c6c5)c(Cl)c4n3)cn2)CC1` [Compound 98], the IC50 was 100 to 400 nM in assay [1], 100 to 400 nM in assay [2], at least 400 nM in assay [3] and at least 400 nM in assay [4].

For `Cc1nc2ccc(Oc3ccc4ncc(-c5cnn(C6CN(C(=O)N(C)C)C6)c5)nc4c3Cl)cc2[nH]1` [Compound 184], the IC50 in assay [1] was 20 to 100 nM; in assay [2], 20 to 100 nM; in assay [3], at least 400 nM; in assay [4] it was 20 to 100 nM.

Turning to `Cc1nc2ccc(Oc3ccc4ncc(-c5cnn(CC(C)(O)C(F)(F)F)c5)nc4c3Cl)c(F)c2[nH]1` (stereo not drawn) [Compound 122], the half-inhibitory concentration (IC50) is 20 to 100 nM in assay [1], 20 to 100 nM in assay [2], at least 400 nM in assay [3] and 20 to 100 nM in assay [4].

`Cc1nc2ccc(Oc3ccc4ncc(-c5cnn(C[C@H]6CCN(C)C[C@H]6F)c5)nc4c3Cl)cc2[nH]1` [Compound 368]: the IC50 lay in the range of 20 to 100 nM in assay [1], 20 to 100 nM in assay [2], 100 to 400 nM in assay [3] and 20 to 100 nM in assay [4].

For the compound `Cc1nc2ccc(Oc3ccc4ncc(-c5cnn(CCN6CC(F)(F)C6)c5)nc4c3Cl)cc2[nH]1` [Compound 251], the IC50 in assay [1] is 20 to 100 nM; in assay [2] it was 20 to 100 nM; in assay [3] it was at least 400 nM; in assay [4], 20 to 100 nM.

For `Cc1nc2ccc(Oc3ccc4ncc(-c5cnn(CC6(O)CC6)c5)nc4c3Cl)cc2[nH]1` [Compound 259], the IC50 in assay [1] was 20 to 100 nM; in assay [2], 20 to 100 nM; in assay [3], at least 400 nM; in assay [4] it was 20 to 100 nM.

`Cc1nc2ccc(Oc3ccc4ncc(-c5cnn(C6CCNCC6)c5C)nc4c3Cl)cc2[nH]1` [Compound 263]: the IC50 was 100 to 400 nM in assay [1], 100 to 400 nM in assay [2], at least 400 nM in assay [3] and 100 to 400 nM in assay [4].

Turning to `Cc1nc2ccc(Oc3ccc4ncc(-c5cnn(C6CN(C)C6)c5)nc4c3Cl)cc2[nH]1` [Compound 227], the IC50 is 20 to 100 nM in assay [1], 20 to 100 nM in assay [2], at least 400 nM in assay [3] and 20 to 100 nM in assay [4].

`Cc1nc2ccc(Oc3ccc4ncc(-c5cnn(C6CCN(C)CC6)c5)nc4c3Cl)cc2[nH]1` [Compound 370]: the IC50 in assay [1] is below 20 nM; in assay [2] it was 20 to 100 nM; in assay [3], 100 to 400 nM; in assay [4], 20 to 100 nM.

In the case of `Cc1nc2ccc(Oc3ccc4ncc(-c5cnn(CCC6CCN(C7COC7)CC6)c5)nc4c3Cl)cc2[nH]1` [Compound 294], the IC50 in assay [1] was 20 to 100 nM; in assay [2] it was 20 to 100 nM; in assay [3], 100 to 400 nM; in assay [4], below 20 nM.

A word on the IC50: it is the concentration that inhibits the measured activity by half. Low values mean greater potency in that assay, high ones weaker potency in that assay.

The record behind these values is patent publication US20240368181A1, “QUINOXALINE DERIVATIVES AND USES THEREOF” (Black Diamond Therapeutics, Inc., priority 2021, published 2024).
